Measurements from the supplement of paper PMC13380429.

Tests used:
Conditions in all cases: 72 h
HepG2 [1] = experiment: cell viability relative to DMSO; higher = less toxic
U2OS [2] = experiment: as above
Vero E6 [3] = experiment: as above
Calu-3 [4] = experiment: as above
Caco-2 [5] = experiment: as above
HepG2 [6] = experiment: relative viability EC50 (midpoint between 100% and the lowest measured viability); higher = less toxic
U2OS [7] = experiment: as above
Vero E6 [8] = experiment: as above
Calu-3 [9] = experiment: as above
Caco-2 [10] = experiment: as above
HepG2 [11] = experiment: drug sensitivity score (DSS) for viability; higher = more toxic; extreme values may be limits of the assay
U2OS [12] = experiment: as above
Vero E6 [13] = experiment: as above
Calu-3 [14] = experiment: as above
Caco-2 [15] = experiment: as above

Compound | cell viability (HepG2 [1]; 1 nM) | cell viability (HepG2 [1]; 10 nM) | cell viability (HepG2 [1]; 100 nM) | cell viability (HepG2 [1]; 1000 nM) | cell viability (HepG2 [1]; 10000 nM) | cell viability (U2OS [2]; 1 nM) | cell viability (U2OS [2]; 10 nM) | cell viability (U2OS [2]; 100 nM) | cell viability (U2OS [2]; 1000 nM) | cell viability (U2OS [2]; 10000 nM) | cell viability (Vero E6 [3]; 1 nM) | cell viability (Vero E6 [3]; 10 nM) | cell viability (Vero E6 [3]; 100 nM) | cell viability (Vero E6 [3]; 1000 nM) | cell viability (Vero E6 [3]; 10000 nM) | cell viability (Calu-3 [4]; 1 nM) | cell viability (Calu-3 [4]; 10 nM) | cell viability (Calu-3 [4]; 100 nM) | cell viability (Calu-3 [4]; 1000 nM) | cell viability (Calu-3 [4]; 10000 nM) | cell viability (Caco-2 [5]; 1 nM) | cell viability (Caco-2 [5]; 10 nM) | cell viability (Caco-2 [5]; 100 nM) | cell viability (Caco-2 [5]; 1000 nM) | cell viability (Caco-2 [5]; 10000 nM) | relative viability EC50 (HepG2 [6]) | relative viability EC50 (U2OS [7]) | relative viability EC50 (Vero E6 [8]) | relative viability EC50 (Calu-3 [9]) | relative viability EC50 (Caco-2 [10]) | drug sensitivity score (HepG2 [11]) | drug sensitivity score (U2OS [12]) | drug sensitivity score (Vero E6 [13]) | drug sensitivity score (Calu-3 [14]) | drug sensitivity score (Caco-2 [15])
CC(C)(C)C#Cc1cc(N(C(=O)[C@H]2CC[C@H](C)CC2)[C@H]2CC[C@@H](O)CC2)c(C(=O)O)s1 [VX-222] | 98.7% | 101% | 91.7% | 96.2% | 101% | 105% | 106% | 98.2% | 105% | 97.6% | 104% | 96.1% | 106% | 99.8% | 102% | 92.5% | 94.9% | 99.2% | 99.3% | 104% | 103% | 114% | 102% | 99.8% | 101% | > 10 µM | > 10 µM | > 10 µM | > 10 µM | > 10 µM | 0 | 0 | 0 | 0 | 0
CC[C@]12C=CCN3CC[C@@]4(c5cc([C@@]6(C(=O)OC)C[C@@H]7C[C@@H](C(C)(F)F)CN(Cc8c6[nH]c6ccccc86)C7)c(OC)cc5N(C)[C@H]4[C@@](O)(C(=O)OC)[C@@H]1OC(C)=O)[C@@H]32 [Vinflunine Ditartrate] | 107% | 95.1% | 61.2% | 32.8% | 34.3% | 101% | 98.1% | 87.5% | 48.6% | 23.1% | 102% | 99.5% | 103% | 64.1% | 24.3% | 108% | 101% | 90.2% | 69.3% | 45.9% | 88.1% | 104% | 77.4% | 55.2% | 41.2% | 0.0789 µM | 0.493 µM | 1.04 µM | 0.655 µM | 0.213 µM | 17 | 11.3 | 8.8 | 6.8 | 10.9
COc1ccc(N(C(=O)Oc2c(C)cccc2C)c2ccnc(Nc3ccc(N4CCN(C)CC4)cc3)n2)c(OC)c1 [WH-4-023] | 92.7% | 91.9% | 93.2% | 100% | 101% | 101% | 96.8% | 98.1% | 107% | 99.8% | 95.4% | 97.4% | 96.7% | 93.7% | 84.8% | 93.3% | 104% | 95.8% | 104% | 89.8% | 101% | 89.4% | 102% | 114% | 103% | > 10 µM | > 10 µM | > 10 µM | > 10 µM | > 10 µM | 0 | 0 | 0.2 | 0 | 0
CCOc1ccc(S(=O)(=O)O)c2cccnc12 [actinoquinol] | 91% | 101% | 95.1% | 98.5% | 110% | 96.3% | 98.1% | 94% | 94.6% | 95.5% | 95.4% | 90.2% | 92.5% | 95.1% | 101% | 99.4% | 99.4% | 99% | 99.8% | 99.1% | 91.1% | 78% | 87.3% | 102% | 95.1% | > 10 µM | > 10 µM | > 10 µM | > 10 µM | > 10 µM | 0 | 0 | 0 | 0 | 0
NCCCC(O)(P(=O)(O)O)P(=O)(O)O [alendronate] | 101% | 91.7% | 107% | 95.4% | 88.8% | 96.6% | 103% | 94.8% | 104% | 97.7% | 102% | 98.5% | 106% | 103% | 106% | 85.5% | 103% | 92.3% | 107% | 98.5% | 97.4% | 102% | 96.9% | 99.8% | 94.3% | > 10 µM | > 10 µM | > 10 µM | > 10 µM | > 10 µM | 0.1 | 0 | 0 | 0 | 0
Cc1[nH]cnc1CN1CCc2c(c3ccccc3n2C)C1=O [alosetron] | 111% | 93.7% | 83.9% | 89.1% | 94.4% | 98.2% | 95.6% | 104% | 96.9% | 99.5% | 99.3% | 94.5% | 93.1% | 96.5% | 97% | 102% | 93.5% | 102% | 91.7% | 106% | 101% | 98.7% | 95.6% | 104% | 109% | > 10 µM | > 10 µM | > 10 µM | > 10 µM | > 10 µM | 3.7 | 0 | 0 | 0 | 0
CN(C)c1nc(N(C)C)nc(N(C)C)n1 [altretamine] | 97.3% | 96.7% | 94.9% | 96% | 93.9% | 100% | 104% | 96.5% | 103% | 97.2% | 104% | 98.3% | 95.5% | 93% | 101% | 92.7% | 95.6% | 111% | 99.3% | 102% | 97.8% | 100% | 99.8% | 106% | 89.9% | > 10 µM | > 10 µM | > 10 µM | > 10 µM | > 10 µM | 0 | 0 | 0 | 0 | 0
CCN(CC)C(C)C(=O)c1ccccc1 (stereo not given) [amfepramone] | 106% | 102% | 100% | 96.6% | 101% | 100% | 95.3% | 98.1% | 95.2% | 98.6% | 92.3% | 102% | 106% | 106% | 86.8% | 109% | 85.5% | 93.6% | 93.7% | 103% | 117% | 95.9% | 103% | 102% | 128% | > 10 µM | > 10 µM | > 10 µM | > 10 µM | > 10 µM | 0 | 0 | 0 | 0 | 0
C[C@@H]1[C@H](O)[C@@H](C)/C=C/C=C/C=C/C=C/C=C/C=C/C=C/[C@H](O[C@@H]2O[C@H](C)[C@@H](O)[C@H](N)[C@@H]2O)C[C@@H]2O[C@](O)(C[C@@H](O)C[C@@H](O)[C@H](O)CC[C@@H](O)C[C@@H](O)CC(=O)O[C@H]1C)C[C@H](O)[C@H]2C(=O)O [amphotericin-b] | 97.4% | 102% | 101% | 101% | 101% | 101% | 97% | 101% | 97.6% | 101% | 101% | 102% | 103% | 101% | 99.6% | 98.4% | 105% | 95.7% | 103% | 99.5% | 106% | 91.1% | 108% | 100% | 98.6% | > 10 µM | > 10 µM | > 10 µM | > 10 µM | > 10 µM | 0 | 0 | 0 | 0 | 0
CCCNC(C)C(=O)Nc1c(C)csc1C(=O)OC (stereo not given) [articaine] | 97.9% | 105% | 110% | 104% | 112% | 96.5% | 95.8% | 99.7% | 92.8% | 105% | 93.4% | 93.1% | 96.1% | 97.3% | 108% | 94% | 94.6% | 100% | 93.5% | 106% | 98.5% | 96.7% | 95.2% | 104% | 105% | > 10 µM | > 10 µM | > 10 µM | > 10 µM | > 10 µM | 0 | 0 | 0 | 0 | 0
C[C@H]1[C@H](C)CC[C@]2(C(=O)O)CC[C@]3(C)C(=CC[C@@H]4[C@@]5(C)C[C@@H](O)[C@H](O)[C@@](C)(CO)[C@@H]5CC[C@]43C)[C@H]12 [asiatic-acid] | 83.4% | 80.2% | 78.6% | 90.2% | 88.9% | 98.1% | 105% | 95.6% | 104% | 96.9% | 106% | 111% | 106% | 93% | 105% | 98.3% | 93.2% | 106% | 90.6% | 97.5% | 101% | 104% | 89.2% | 94.2% | 95.6% | > 10 µM | > 10 µM | > 10 µM | > 10 µM | > 10 µM | 0 | 0 | 0 | 0 | 0.4
CN(C)C(=O)Nc1cccc(-c2ccc(N(C)C)cc2)c1 [atglistatin] | 98.2% | 97.9% | 99.4% | 108% | 113% | 96.4% | 99.3% | 97.8% | 98.5% | 96.5% | 99% | 99.7% | 98.3% | 97.6% | 107% | 111% | 99.2% | 90.1% | 96.6% | 103% | 84.3% | 100% | 92.2% | 88.7% | 104% | > 10 µM | > 10 µM | > 10 µM | > 10 µM | > 10 µM | 0 | 0 | 0 | 0 | 0
CN1C(=O)COc2c(C(=O)NC3CN4CCC3CC4)cc(Cl)cc21 (stereo not given) [azasetron] | 91.6% | 99% | 87.9% | 94.5% | 96.2% | 101% | 91.4% | 95.6% | 99% | 99.2% | 102% | 94.4% | 91.8% | 86.2% | 105% | 91.4% | 93.1% | 103% | 110% | 111% | 98.4% | 94.9% | 96.6% | 98.7% | 98.5% | > 10 µM | > 10 µM | > 10 µM | > 10 µM | > 10 µM | 0 | 0 | 0 | 0 | 0
